PubChem BioAssay AID1963875 (Molecular Pharmacology Branch, DTP, NCI, 2024)
pIC50: −log10 of the molar value.

Tested on: KRAS-mutant PDC complex spheroid viability
Assay: Anticancer human tumor 186277-243-T-J2-PDC patient-derived colon adenocarcinoma cell line growth inhibition [KRAS2]
Conditions: for pIC50: curve of first compound; for viability, T/C: stronger effect = lower value
Description: Multicellular complex tumor spheroid response to RAS pathway inhibitors in combination with a targeted agents in patient-derived cell lines with oncogenic KRAS variants from multiple cancer types
A high-throughput screen of multi-cell type tumor spheroids was designed to identify active combinations of targeted small molecules and KRAS pathway inhibitors. Complex spheroids include a stromal component modeled by human endothelial cells (HUVEC) and fibroblasts modeled by human mesenchymal stem cells (MSCs). The concentration ranges selected for each drug and investigational agent were based upon clinically achievable concentrations if the clinical Cmax of the agent was known.
Compounds. The drugs and investigational agents: BI-3406 (NSC825286), BAY-293 (NSC824723), batoprotafib (TNO155; NSC825523), sotorasib (AMG 510; NSC818433), MRTX1257 (NSC819558), elimusertib (BAY 1895344; NSC800525), molibresib (GSK525762; NSC774829), temuterkib (LY3214996; NSC803410), venetoclax (NSC766270), alisertib (NSC759677), olaparib (NSC753686), talazoparib (NSC767125), erdafitinib (NSC781556), ipatasertib (NSC767898), cabozantinib (NSC761068), nintedanib (NSC756659), abemaciclib (NSC768073), docetaxel (NSC628503), trametinib (NSC758246), and sapanisertib (NSC764658) were obtained from the National Cancer Institute (NCI) Developmental Therapeutics Program Chemical Repository. The FDA-approved anticancer drug set is available from the Developmental Therapeutics Program. […] The stock solutions were prepared in dimethyl sulfoxide (DMSO, Sigma-Aldrich, St. Louis, MO, cat. D2650) at 800-fold the tested concentration and stored at -70 degrees C prior to their use. All drugs and investigational agents were tested over a range starting from a high concentration at or near the clinical Cmax and decreasing in half-log increments. If the clinical Cmax for an agent had not been determined, the highest concentration tested was 10 microM.
Cell Culture. All cells were maintained in an incubator at 37 degrees C and 5% CO2 with 95% humidity. The PDC lines were cultured according to standard operating procedures established by the NCI PDMR (https://pdmr.cancer.gov/sops/default.htm). Briefly, all PDCs were thawed and cultured in Matrigel-coated flasks prepared with a working solution of 1X Ham's F-12 nutrient mix, without supplementation (Invitrogen, Waltham, MA, cat. 11765054), 100 U/mL penicillin-streptomycin (Invitrogen, cat. 15140122), and 2.5% Matrigel (Corning Inc., Corning, NY, cat. 354248) for the first three passages. All PDCs were cultured in complete DMEM/F-12 media containing advanced DMEM/F-12 (Invitrogen, cat. 12634028), 4.9% defined fetal bovine serum, heat inactivated (HyClone Laboratories Inc., Logan, UT, cat. SH30070.03HI), 389 ng/mL hydrocortisone (Sigma-Aldrich, cat. H4001), 9.7 ng/mL human EGF recombinant protein (Invitrogen, cat. PHG0313), 23.4 microg/mL adenine (Sigma-Aldrich, cat. A2786), 97.3 U/mL penicillin-streptomycin (Invitrogen, cat. 15140122), 1.9 mM L-glutamine (Invitrogen, cat. 25030081), and 9.7 microM Y-27632 dihydrochloride (Tocris Bioscience, Bristol, United Kingdom, cat. 1254). The PDCs were cultured in complete DMEM/F12 media without 9.7 microM Y-27632 dihydrochloride for at least two passages prior to the screen. The established cell line HOP-62 was cultured in RPMI 1640 medium, HEPES (Invitrogen, cat. 22400105) with 10% defined fetal bovine serum (HyClone Laboratories Inc., cat. SH30070.03) and 2 mM L-glutamine (Invitrogen, cat. 25030081). The pooled donor HUVEC were cultured in endothelial cell growth medium 2 (PromoCell, Heidelberg, Germany, cat. C-22011) and the hMSC were cultured in mesenchymal stem cell growth medium 2 (PromoCell, cat. C-28009). For all experiments, HUVEC and hMSC were used at passages </=5, while the malignant cell lines were used at passages </=15. […]

[1] = second compound 0.1 µM, first compound 0.01 µM
[2] = second compound 0.1 µM, first compound 0.0316 µM
[3] = second compound 0.1 µM, first compound 0.1 µM
[4] = second compound 0.316 µM, first compound 0.01 µM
[5] = second compound 0.316 µM, first compound 0.0316 µM
[6] = second compound 0.316 µM, first compound 0.1 µM
[7] = second compound 1 µM, first compound 0.01 µM
[8] = second compound 1 µM, first compound 0.0316 µM
[9] = second compound 1 µM, first compound 0.1 µM
[10] = second compound 3.16 µM, first compound 0.01 µM
[11] = second compound 3.16 µM, first compound 0.0316 µM
[12] = second compound 3.16 µM, first compound 0.1 µM
[13] = second compound 10 µM, first compound 0.01 µM
[14] = second compound 10 µM, first compound 0.0316 µM
[15] = second compound 10 µM, first compound 0.1 µM
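Throughout, for viability, T/C: viability read after seven days of compound exposure; 100% = DMSO vehicle-treated spheroids so lower means less viable.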

SMILES	pIC50 (second compound 0.1 µM)	pIC50 (second compound 0.316 µM)	pIC50 (second compound 1 µM)	pIC50 (second compound 3.16 µM)	pIC50 (second compound 10 µM)	viability, T/C [1] [%]	viability, T/C [2] [%]	viability, T/C [3] [%]	viability, T/C [4] [%]	viability, T/C [5] [%]	viability, T/C [6] [%]	viability, T/C [7] [%]	viability, T/C [8] [%]	viability, T/C [9] [%]	viability, T/C [10] [%]	viability, T/C [11] [%]	viability, T/C [12] [%]	viability, T/C [13] [%]	viability, T/C [14] [%]	viability, T/C [15] [%]	other results
CC(=O)OC12COC1CC(O)C1(C)C(=O)C(O)C3=C(C)C(OC(=O)C(O)C(NC(=O)OC(C)(C)C)c4ccccc4)CC(O)(C(OC(=O)c4ccccc4)C21)C3(C)C (stereo not given) + C=CC(=O)N1CCN(c2nc(=O)n(-c3c(C)ccnc3C(C)C)c3nc(-c4c(O)cccc4F)c(F)cc23)C(C)C1	> 8.00	> 8.00	> 8.00	> 8.00	> 8.00	6.27	4.61	3.18	6.24	4	3.67	6.82	4.03	3.81	6.24	4.69	3.98	6.5	5.4	5.36	viability, T/C (second compound 0.1 µM, first compound 0.316 µM): 3.25%; viability, T/C (second compound 0.1 µM, first compound 1 µM): 3.42%; viability, T/C (second compound 0.1 µM, first compound 3.16 µM): 3.34%; viability, T/C (second compound 0.316 µM, first compound 0.316 µM): 3.33%; viability, T/C (second compound 0.316 µM, first compound 1 µM): 3.62%; viability, T/C (second compound 0.316 µM, first compound 3.16 µM): 4%; viability, T/C (second compound 1 µM, first compound 0.316 µM): 3.93%; viability, T/C (second compound 1 µM, first compound 1 µM): 4%; viability, T/C (second compound 1 µM, first compound 3.16 µM): 4.32%; viability, T/C (second compound 3.16 µM, first compound 0.316 µM): 4.34%; viability, T/C (second compound 3.16 µM, first compound 1 µM): 4.7%; viability, T/C (second compound 3.16 µM, first compound 3.16 µM): 4.34%; viability, T/C (second compound 10 µM, first compound 0.316 µM): 5.19%; viability, T/C (second compound 10 µM, first compound 1 µM): 5.08%; viability, T/C (second compound 10 µM, first compound 3.16 µM): 4.88%
CN(C)C/C=C/C(=O)Nc1cc2c(Nc3ccc(F)c(Cl)c3)ncnc2cc1O[C@H]1CCOC1 + C=CC(=O)N1CCN(c2nc(=O)n(-c3c(C)ccnc3C(C)C)c3nc(-c4c(O)cccc4F)c(F)cc23)C(C)C1	< 7.00	< 7.00	< 7.00	< 7.00	7.30	102	122	109	98.4	107	112	101	113	105	98.1	97.7	74.4	66.3	55.2	40.6	viability, T/C (second compound 0.1 µM, first compound 0.000316 µM): 105%; viability, T/C (second compound 0.1 µM, first compound 0.001 µM): 93.7%; viability, T/C (second compound 0.1 µM, first compound 0.00316 µM): 106%; viability, T/C (second compound 0.316 µM, first compound 0.000316 µM): 95.8%; viability, T/C (second compound 0.316 µM, first compound 0.001 µM): 97.7%; viability, T/C (second compound 0.316 µM, first compound 0.00316 µM): 99.5%; viability, T/C (second compound 1 µM, first compound 0.000316 µM): 91.2%; viability, T/C (second compound 1 µM, first compound 0.001 µM): 106%; viability, T/C (second compound 1 µM, first compound 0.00316 µM): 91.5%; viability, T/C (second compound 3.16 µM, first compound 0.000316 µM): 93.1%; viability, T/C (second compound 3.16 µM, first compound 0.001 µM): 103%; viability, T/C (second compound 3.16 µM, first compound 0.00316 µM): 100%; viability, T/C (second compound 10 µM, first compound 0.000316 µM): 79.9%; viability, T/C (second compound 10 µM, first compound 0.001 µM): 68.8%; viability, T/C (second compound 10 µM, first compound 0.00316 µM): 77.3%
